The subject of assay [1] is porcine islets. In words: Static glucose stimulation (SGS): insulin secretion of cultured porcine islets. It is filed as cell-based. The conditions noted are these: for effect of exposure beyond 24 hrs on insulin production in response to glucose: post isolation.
Assay [2] concerns porcine islets. The description is as above. Format: cell-based. The text has this:
Static glucose stimulation (SGS) is used to assess in vitro function of the porcine islets by exposing them to low and high concentrations of glucose and theophylline. Determination of the in vitro insulin secretory capacity is undertaken on both free islets (after 3 days in culture) and after their subsequent encapsulation or confinement.
Keep the cells 3 days in culture before Static Glucose Stimulation (SGS). SGS involves exposure of the cells to low and high concentration of glucose to check insulin production. Using 0.1 ug/ml concentration add IGF1 and GPE to two plates 24 hours before SGS (day 2 after isolation)

The mark [3] stands for this setting: Incubated 24 hrs with 1.0 ug/ml IgF-1.

`CCN(CC)CC(=O)Nc1c(C)cccc1C` [Lidocaine, reference compound]: the “increase in insulin secretion in response to glucose challenge” value in the assay with porcine islets [1] (Lidocaine during digestion, after 3 days in culture) is 3 fold. For the same compound, in the assay with porcine islets [1] (islets from Collagenase digestion, with or without 1 mM Lidocaine), the “Insulin secretion in response to 19.4 mM Glucose + 10 mM Theophyline After 3 days culture Post isolation” value was determined as 163.8 uU/hr/100 IEQ.
Turning to IgF-2: insulin-like growth factor II, the “effect on insulin production of porcine islet cells” value with porcine islets [2] (0.1 μg/ml during culturing, initial exposure of 24 hrs) was “appeared to increase”. Moreover, in the assay with porcine islets [1], the “persistence of increased insulin production post exposure” value is reported as ≤ 3 days and the “effect of exposure beyond 24 hrs on insulin production in response to glucose” value is “failed to increase”. In addition, in the assay with porcine islets [1] (Incubated 24 hrs With 0.1 ug/ml IgF-2 day 1, second sub-table), the “Insulin secretion In response to 19.4 mM Glucose + 10 mM Theophyline After 3 days culture Post isolation” value is 32 uU/hr/100 IEQ. Moreover, the “Insulin secretion In response to 19.4 mM Glucose + 10 mM Theophyline After 3 days culture Post isolation” value in the assay on porcine islets [1] (Incubated 7 days with 0.1 ug/ml IgF-2) worked out at 38.4 uU/hr/100 IEQ.
Turning to “IgF-1: Human Insulin-like Growth Factor I, a potent mitogenic growth factor”, the “effect of withdrawal of Nicotinamide from the culture media on islet insulin production” value with porcine islets [2] is “eliminated the benefit of IgF-1”. For the same compound, the “concentration in culture sufficient to produce optimal insulin secretion during glucose challenge” value in the assay on porcine islets [2] (IgF-1 in culture) is 0.1 µg/mL. The “Insulin secretion In response to 19.4 mM Glucose + 10 mM Theophyline 7 days post isolation” value worked out at 57.5 uU/hr/100 IEQ in the assay with porcine islets [2] (setting [3]) and 58 uU/hr/100 IEQ in the assay on porcine islets [1] (Incubated 7 days with 0.1 ug/ml IgF-1). For the same compound, the “Insulin secretion In response to 19.4 mM Glucose + 10 mM Theophyline After 3 days” value with porcine islets [2] (setting [3]) worked out at 56.8 uU/hr/100 IEQ. In the assay on porcine islets [2] (Incubated 3 days With 0.1 ug/ml IgF-1 Without Nicotinamide), the “Insulin secretion In response to 19.4 mM Glucose + 10 mM Theophyline After 3 days culture Post isolation” value is 47.6 uU/hr/100 IEQ. In addition, the “increase of insulin response to glucose” value in the assay on porcine islets [2] (porcine islets in culture exposed to IgF-1) is reported as ≤ 3 fold. Further, in the assay on porcine islets [1], the “persistence of increased insulin production post exposure” value was ≥ 14 days. The “Insulin secretion In response to 19.4 mM Glucose + 10 mM Theophyline, increase Compared to control” value is reported as 1.5-fold increase in the assay with porcine islets [1] (3 days post IgF-1 Exposure) and 1.3-fold increase in the assay on porcine islets [1] (14 days post IgF-1 Exposure). In addition, the “effect of increasing the concentration in culture on insulin response” value in the assay with porcine islets [1] (above the sufficient concentration) is listed as “No further benefit”. The “effect of exposure beyond 24 hrs on insulin production in response to glucose” value in the assay with porcine islets [1] is “no increased benefit”.
